Measured values from US20180291070A1, “PEPTIDES, AND USES THEREOF” (priority 2015, published 2018).
“And” between values parts separate entries of the source, which are not always exact repeats. Identical values can stand only once.

The substances below were run on Human Dermal Fibroblasts (HDF) (assay: BrdU Cell Proliferation Assay). Conditions: 5, 0.5 or 0.05 μg/ml synthetic peptide 24 h.
Assay type: cell-based
Method: BrDu is incorporated into newly synthesised DNA strands of actively proliferating cells. Following partial denaturation of double stranded DNA, Brdu is detected immunochemically allowing the assessment of the population of cells which are synthesizing DNA. Human Dermal Fibroblasts (HDF—Sigma 10605a) were seeded in a 96 well plate at 10,000 cells per well in DMEM containing 10% fetal calf serum (FCS), 1% Pen/strep, 1% L-glutamine and allowed to adhere for 24 h. Following the initial 24 h incubation the cells were incubated with 5 μg/ml, 0.5 μg/ml or 0.05 μg/ml synthetic peptide for 24 h respectively. After 18 h incubation with synthetic peptides 20 μl BrDu reagent was added to each well. At 24 h incubation the cell were fixed and the amount of […] was measured using the BrdU Cell Proliferation Assay, all steps were carried out according to the manufacturer's instructions. Results were calculated as a percentage of the untreated control. An increase in optical density reading indicates greatER incorporation of BrDu and increase cell proliferation.

Substance | INCREASE IN PROLIFERATION
73 (SIFRALPNDVLANAYRISREE) [compound 73] | 16%
74 (SIFRALPND) [compound 74] | 29%
83 (SYQDVYNVAESS) [compound 83] | 32%
84 (ISREEAQR) [compound 84] | 20%
85 (SIFRALPTDVLANAYRISREE) [compound 85] | 35%
93 (YIIQGRGITGPTF) [compound 93] | 26%
97 (GEIVRVER) [compound 97] | 26%
98 (RGLSLLQPYASLQ) [compound 98] | 49%
105 (LAGNKRNPQAYR) [compound 105] | 40%
112 (GEELGAFTPR) [compound 112] | 15%
114 (SIEQHSGQNIFSGFNNELLSEALGVNALVAK) [compound 114] | 119%
121 (PNVNPWHNPRQGGF) [compound 121] | 48%
124 (FYNEGDAPVVAL) [compound 124] | 15%
146 (VFIDHPSFLEK) [compound 146] | 80%
158 (NNQRNFLAGDEDNVISQIQRPVKE) [compound 158] | 21%
181 (DLAIPVNRPGQLQS) [compound 181] | 33%
222 (DDEEEEQGEEEINK) [compound 222] | 110%
226 (KEDDEEEEQGEEEINK) [compound 226] | 30%
247 (LVDLVIPVNGPGKFEAFDLAK) [compound 247] | 28%
248 (DNVISQIENPVKE) [compound 248] | 86%
249 (VVIIPAGHPVAITASSNLNLLGFG) [compound 249] | 30%
252 (VIPVNGPGKF) [compound 252] | 111%
253 (SKKSLPSE) [compound 253] | 112%

Substance | INCREASE IN PROLIFERATION
256 (IPVNGPGKF) [compound 256] | 117%
257 (LPQHIDADL) [compound 257] | 118%
270 (HGEWRPSYEKQEDEEEK) [compound 270] | 47%
272 (PSYEKEEDEEEGQR) [compound 272] | 97%
285 (VVIIPAGHPVA) [compound 285] | 81%
330 (NKNQYLRGFS) [compound 330] | 18%
337 (NKNQYLRGFSKNILE) [compound 337] | 8%
341 (RGDTIKLPAGTTSYLVNQDDEE) [compound 341] | 83%
359 (GTSSVINNLPLDVVAATFNLQRNE) [compound 359] | 15%
365 (AGTSSVINNLPLDV) [compound 365] | 58%
403 (HPVAVRASSNLNLLGFGINAE) [compound 403] | 51%
410 (TLFLPQYTDADFILVVLSGK) [compound 410] | 73%
452 (YYGEQQQQPGMTR) [compound 452] | 76%
453 (SYEESMPMPLEQGWSSSSSE) [compound 453] | 25%
454 (YYGEGSSEEGYYGEQQQQPGMTR) [compound 454] | 38%
455 (QQQQPGMTRV) [compound 455] | 47%
457 (SYEESMPMPLEQGWSSSSSEY) [compound 457] | 114%
460 (GEGSSEEGYYGEQQQQPGMTR) [compound 460] | 38%
461 (YGEGSSEEGYYGEQQQQPGMTR) [compound 461] | 85%
462 (QQQQPGMTRVR) [compound 462] | 15%
463 (QYAAQLPSMCRVEPQQCSIFAAGQY) [compound 463] | 100%
464 (TVFNGVLRPGQL) [compound 464] | 18%
465 (TVFNGVLRPGQLL) [compound 465] | 96%

Substance | INCREASE IN PROLIFERATION
467 (NGVLRPGQL) [compound 467] | 90%
468 (ALVAKRLQGQNDQRGEI) [compound 468] | 82%
470 (PRYSNTPGMV) [compound 470] | 119%
471 (YSNTPGMVY) [compound 471] | 38%
472 (LVPRYSNTPGM) [compound 472] | 77%
473 (FYNEGDAPVV) [compound 473] | 41%
474 (FYNEGDAPVVAL) [compound 474] | 121%
477 (FYNEGDAPVVA) [compound 477] | 81%
478 (EVEERSQNIF) [compound 478] | 76%
479 (VEERSQNIFSGF) [compound 479] | 106%
480 (ASLQEQEQGQVQ) [compound 480] | 102%
482 (ASLQEQEQGQVQSR) [compound 482] | 113%
495 (SGFSTELLSEALGVSSQVAR) [compound 495] | 68%
496 (GAFTPLQYKSYQD) [compound 496] | 51% and 81%
497 (GLLLPHYTNGASLVY) [compound 497] | 58%
499 (ALPTDVLANAYR) [compound 499] | 113%
500 (DFLLAGNK) [compound 500] | 6%
501 (DVLANAYR) [compound 501] | 43%
502 (GAFTPLQYK) [compound 502] | 68%
503 (QGDVIALPAGVAHW) [compound 503] | 125%
504 (FGAFTPLQYKSY) [compound 504] | 119%
505 (FLLAGNKRNPQAYR) [compound 505] | 118%

These substances were tested on TNF-α (assay: TNF-α secretion by LPS-stimulated THP-1 differentiated macrophages (Biolegend ELISA)). Conditions: THP-1 cells; 100, 10 or 1 ng/ml synthetic peptide 24 h, then 10 ng/ml LPS 5 h; vs untreated control.
Assay type: cell-based, human
Method: TNF-α is secreted by macrophages in response to stimulation by endotoxins such as lipopolysaccharides (LPS). TNF-α is thought to be involved in systemic inflammation and dysregulation of TNF-α production is thought to be involved in many diseases. The Biolegend assay is a sandwich ELISA kit that is designed for the accurate quantitation of human TNF-α from cell culture supernatant, serum or plasma.
THP-1 monocytes were seeded in a 96 well plate at 10,000 cells per well in RPMI containing 10% fetal calf serum (FCS), 1% Pen/strep, 1% L-glutamine, 100 nM PMA and allowed to differentiated for 72 h prior to experimentation.
Following differentiation the cells were incubated with 100 ng/ml, 10 ng/ml or 1 ng/ml synthetic peptide for 24 h respectively.
Following treatment the cells were stimulated with 10 ng/ml LPS for 5 h and the quantity of TNF-α in the supernatant determined using the Biolegend assay ELISA kit.
Results were calculated as a percentage of the untreated control. An increase in optical density reading indicates greater quantity of TNF-α release into cell culture supernatant.
All experiments were prepared in duplicate on three plates (6 wells/conditions). Significance was calculated using Students t-test (*p<0.05 compared to control, **p<0.01 compared to control, *** p<0.001 compared to control).

Substance | TNF-α DECREASE [%]
75 (IYVTDLNNGANQLDPRQRD) [compound 75] | 11
76 (VTNLNSQNFPILNLVQMSAVK) [compound 76] | 9
85 (SIFRALPTDVLANAYRISREE) [compound 85] | 80
91 (TVFNGELR) [compound 91] | 80
92 (QVQVVNNNGKTVF) [compound 92] | 13
93 (YIIQGRGITGPTF) [compound 93] | 14
105 (LAGNKRNPQAYR) [compound 105] | 9
144 (AGILEADR) [compound 144] | 16
320 (KRHGEWRPSYEKEEDEE) [compound 320] | 13
339 (ASSNLNLLGF) [compound 339] | 26
341 (RGDTIKLPAGTTSYLVNQDDEE) [compound 341] | 21
344 (ARLSPGDVVIIPAGHPVAIT) [compound 344] | 20
345 (RGDTIKLPAGTTSYLVNQDDE) [compound 345] | 23
346 (ARLSPGDVVIIPAGHPVA) [compound 346] | 18
349 (LSPGDVVIIPAGHPVAITASSNLNLLGFGINAENNER) [compound 349] | 6
350 (ARLSPGDVVIIPAGHPVAITAS) [compound 350] | 80
351 (LSPGDVVIIPAGHPVAITASSNL) [compound 351] | 18
352 (ARLSPGDVVIIPAGHPVAITA) [compound 352] | 23
353 (HGPVEMPYTLLYPSSK) [compound 353] | 20

Same assay, conditions: THP-1 differentiated macrophages treated 24 hrs. prior to LPS stimulation

Substance | TNF-α secretion reduced vs. untreated cells [%]
QSFLLSGNQ [E_1_788] | 80
